Measurements: ChEMBL document CHEMBL1123474, “Neuroleptics from the 4a,9b-cis- and 4a,9b-trans-2,3,4,4a,5,9b-hexahydro-1H-pyrido[4,3-b]indole series. 2” (J Med Chem, 1986)

What was measured:
Rattus norvegicus [1] = assay: Inhibition of d-amphetamine induced stereotypy in rats; i.p. treatment 24 hr before amphetamine.; format: functional
Rattus norvegicus [2] = assay: Inhibition of d-amphetamine induced stereotypy in rats; i.p. treatment 1 hr before amphetamine.; format: functional
Rattus norvegicus [3] = assay: Inhibition of d-amphetamine induced stereotypy in rats; i.p. treatment 5 hr before amphetamine.; format: functional
Rattus norvegicus [4] = organism: Rattus norvegicus; assay: animal or person; details: ip
Rattus norvegicus [5] = organism: Rattus norvegicus; assay: animal or person; details: ip; remark: listed apart in the source
Rattus norvegicus [6] = organism: Rattus norvegicus; assay: animal or person; details: ip; remark: listed apart in the source
[7] = Rattus norvegicus, ip, read-out: ED50

SMILES | ED50 (Rattus norvegicus [1]; [7]) | ED50 (Rattus norvegicus [2]; [7]) | ED50 (Rattus norvegicus [3]; [7]) | other results
COc1ccc(/C=C/CCN2CC[C@@H]3[C@@H](C2)c2cc(F)ccc2N3c2ccc(F)cc2)cc1 | ~0.32 mg/kg | > 3.2 mg/kg | ~0.32 mg/kg | –
Fc1ccc(/C=C/CCN2CC[C@@H]3[C@@H](C2)c2cc(F)ccc2N3c2ccc(F)cc2)cc1 | 0.57 mg/kg | > 1 mg/kg | 0.57 mg/kg | –
OC(CCCN1CC[C@@H]2[C@@H](C1)c1ccccc1N2c1ccc(F)cc1)c1ccc(F)cc1 (some centres not stated) | 0.032 mg/kg | ~0.32 mg/kg | 0.032 mg/kg | –
OCCCCN1CC[C@@H]2[C@@H](C1)c1cc(F)ccc1N2c1ccc(F)cc1 | ~1 mg/kg | 0.03 mg/kg | 0.009 mg/kg | –
Fc1ccc(N2c3ccc(F)cc3[C@@H]3CNCC[C@H]32)cc1 | – | > 3.2 mg/kg | > 3.2 mg/kg | –
CCN1CC[C@@H]2[C@@H](C1)c1cc(F)ccc1N2c1ccc(F)cc1 | > 10 mg/kg | 0.14 mg/kg | 0.18 mg/kg | –
OC(CCCN1CC[C@H]2[C@@H](C1)c1ccccc1N2c1ccccc1)c1ccc(F)cc1 (some centres not stated) | – | > 32 mg/kg | > 32 mg/kg | –
OC(CCCN1CC[C@H]2[C@@H](C1)c1cc(F)ccc1N2c1ccc(F)cc1)c1ccc(F)cc1 (some centres not stated) | 9.1 mg/kg | 22 mg/kg | 1.1 mg/kg | –
CN1CC[C@H]2[C@@H](C1)c1ccccc1N2c1ccccc1 | – | > 32 mg/kg | > 32 mg/kg | –
c1ccc(CN2CC[C@H]3[C@@H](C2)c2ccccc2N3c2ccccc2)cc1 | – | > 32 mg/kg | > 32 mg/kg | –
OC(CCCN1CC[C@@H]2[C@@H](C1)c1cc(F)ccc1N2c1ccc(F)cc1)c1ccc(F)cc1 (some centres not stated) | 0.03 mg/kg | 0.41 mg/kg | 0.03 mg/kg | –
COc1ccc(C(O)CCCN2CC[C@@H]3[C@@H](C2)c2cc(F)ccc2N3c2ccc(F)cc2)cc1 (some centres not stated) | 0.1 mg/kg | 0.36 mg/kg | 0.01 mg/kg | –
CN1CC[C@@H]2[C@@H](C1)c1cc(F)ccc1N2c1ccc(F)cc1 | > 3.2 mg/kg | 0.14 mg/kg | 0.23 mg/kg | –
c1ccc(N2c3ccccc3[C@@H]3CNCC[C@@H]32)cc1 | – | > 32 mg/kg | > 32 mg/kg | –
O=C(CCCN1CC[C@@H]2[C@@H](C1)c1cc(F)ccc1N2c1ccc(F)cc1)c1ccc(F)cc1 | 0.03 mg/kg | > 1 mg/kg | 0.1 mg/kg | –
OC(CCCN1CC[C@@H]2[C@@H](C1)c1cc(F)ccc1N2c1ccc(F)cc1)c1ccccc1 (some centres not stated) | 0.18 mg/kg | 0.18 mg/kg | – | ED50 (Rattus norvegicus [3]; ip): 0.18 mg/kg
OC(CCCN1CC[C@@H]2[C@@H](C1)c1cc(F)ccc1N2c1ccccc1)c1ccc(F)cc1 (stereo in doubt; 24) | – | – | – | ED50 (Rattus norvegicus [1]): 0.11 mg/kg; ED50 (Rattus norvegicus [2]): 0.23 mg/kg; ED50 (Rattus norvegicus [3]): 0.08 mg/kg
OC(CCCN1CC[C@@H]2[C@@H](C1)c1cc(F)ccc1N2c1ccccc1)c1ccc(F)cc1 (stereo in doubt; 25) | – | – | – | ED50 (Rattus norvegicus [1]): 0.032 mg/kg; ED50 (Rattus norvegicus [2]): 0.1 mg/kg; ED50 (Rattus norvegicus [3]): ~0.032 mg/kg
CN1CC[C@@H]2Nc3ccccc3[C@@H]2C1 [CARBIDINE] | – | > 32 mg/kg | > 32 mg/kg | –
OC(CCCN1CCc2c(c3cc(F)ccc3n2-c2ccc(F)cc2)C1)c1ccc(F)cc1 (configuration not stated) [FLUTROLINE] | 0.32 mg/kg | 0.1 mg/kg | 0.1 mg/kg | –
O=C(CCCN1CCC(O)(c2ccc(Cl)cc2)CC1)c1ccc(F)cc1 [HALOPERIDOL] | – | – | – | ED50 (Rattus norvegicus [4]): 0.1 mg/kg; ED50 (Rattus norvegicus [5]): 0.1 mg/kg; ED50 (Rattus norvegicus [6]): > 3.2 mg/kg
